This is an account of results in patent US5266319A, “Tannin derivatives and their use for treatment of hypertension” (National Science Council, priority 1992, dated 1993).

The test system of series [1] is contraction of rat blood vessel (norepinephrine). The experiment in a line: inhibition of norepinephrine-induced contraction of rat blood vessel. The series is classed as in vivo. The conditions noted are these: norepinephrine 10^-6 g/kg; dose 1 mg/kg i.v.; anesthetized normal rats; Means ± S.D.; n=8. Here is the method: (§1) The effect on the contraction of rat blood vessel Norepinephrine and octopamine were injected into various anesthetized normal rats respectively, so that a contraction of rat blood vessels was induced and the blood pressure increased. […] Therefore, the tannins are potent in inhibiting the contraction of blood vessels and the effect of the tannins on the wall of blood vessel is also significant.

In series [2] the test system is spontaneously hypertensive rats (SHR). The experiment in a line: depression of tail arterial blood pressure in spontaneously hypertensive rats (SHR). The series is classed as in vivo, rat. The conditions noted are these: for Depression of blood pressure, SHR: injected, Means±S.D., N=11; for depress the blood pressure of hypertensive rats (conventional antihypertensive drugs): 1 mg/kg injection, N=8. Here is the method: (§2) The effect on the blood pressure of spontaneously hypertensive rats (SHR) and normal rats (WKY)
(§3) The tannins obtained in the example 1 were injected into various rats respectively at different concentrations.
(§4) The data (Means±S.D.) in table 1 represents the value of the depression range of blood pressure (N=11). In comparison to conventional antihypertensive drugs, guanethidine can depress the blood pressure of hypertensive rats in a range of 28.8±7.95 mmHg (N=8) with a injection concentration of 1 mg/kg, prazosin in a range of 31.4±7.17 mmHg (N=8) and nifedipine in a range of 10.8±2.78 mmHg (N=8) at the same concentration.

Series [3] deals with normal rats (WKY). The experiment in a line: depression of tail arterial blood pressure in normal rats (WKY). Format: in vivo, rat. The conditions noted are these: injected, Means±S.D., N=11. The method, then:
as §2, §3, §4

Series [4] relates to contraction of rat blood vessel (octopamine). Kind of series: inhibition of octopamine-induced contraction of rat blood vessel. The series is classed as in vivo. The conditions noted are these: octopamine 8 × 10^-4 g/kg; dose 1 mg/kg i.v.; anesthetized normal rats; Means ± S.D.; n=8. Here is the method:
as §1

The nature of series [5]: lethal dosage (LD50) in rats. The series is classed as in vivo. The conditions noted are these: rat, in vivo. Here is the method: (§5) Furthermore, the lethal dosages (LD50) for the rats were determined. The LD50 of corilagin and geraniin were greater than 100 mg/kg, and the LD50 of 6-O-galloyl-D-glucose and 1,2,3,4,6-penta-O-galloyl-D-glucose were greater than 50 mg/kg. Therefore, these four tannins can be used as a safe and effective […] drugs.

In series [6] the test system is norepinephrine. Kind of series: concentration of norepinephrine in blood (plasma NE). The series is classed as in vivo, rat. The conditions noted are these: injected to the veins, after ten minutes, Means ± S.D, N=6, Control 3.55 ± 0.31. The method, then:
The effect on the concentration of norepinephrine in blood Four tannins were injected to the veins of various rats respectively at different concentrations. After ten minutes, the blood of the rats were sampled to determine the concentration of norepinephrine in their blood. Obviously, these compounds can reduce the concentration of norepinephrine,i.e., they can inhibit the secretion of norepinephrine and relax the adrenergic tension, and therefore the blood pressure can be reduced.

In series [7] the test system is rats. The experiment in a line: lethal dosage (LD50) in rats. The series is classed as in vivo. Here is the method: as §5

Bounds are passed on as bounds.

One may read the LD50 as the dose expected to kill half of the subjects tested. High values mean lower toxicity, low ones greater toxicity.

Turning to `O=C(OC[C@H]1O[C@@H](OC(=O)c2cc(O)c(O)c(O)c2)[C@H](OC(=O)c2cc(O)c(O)c(O)c2)[C@@H](OC(=O)c2cc(O)c(O)c(O)c2)[C@@H]1OC(=O)c1cc(O)c(O)c(O)c1)c1cc(O)c(O)c(O)c1` [1,2,3,4,6-penta-O-galloyl-D-glucose, 1,2,3,4,6-penta-O-galloyl-β-D-glucose], the “Inhibition (%), Norepinephrine” value in series [1] came to 70.6 ± 10.7%. Also, the “Depression of blood pressure, SHR” value in series [2] (1 mg/kg) was 13.28 ± 6.22 mmHg; in series [2] (5 mg/kg) it was 29.57 ± 13.38 mmHg. The “Depression of blood pressure, WKY” value in series [3] (1 mg/kg) is 2.62 ± 2.33 mmHg; in series [3] (5 mg/kg), 5.74 ± 2.41 mmHg. For the same compound, the “Inhibition (%), Octopamine” value in series [4] was 72.1 ± 14.8%. In addition, the 50% lethal dose (LD50) in series [5] was more than 50 mg/kg. Further, the “Plasma NE” value in series [6] (1 mg/kg) turned out to be 1.94 ± 0.19 pmol/mL; in series [6] (5 mg/kg) it was 1.23 ± 0.21 pmol/mL.
Take `O=C(OC[C@H]1OC(O)[C@H](O)[C@@H](O)[C@@H]1O)c1cc(O)c(O)c(O)c1` (stereo partly drawn) [6-O-galloyl-D-glucose]: in series [1], the “Inhibition (%), Norepinephrine” value was 64.1 ± 15.1%. The “Depression of blood pressure, SHR” value amounted to 17.28 ± 7.08 mmHg in series [2] (1 mg/kg) and 24.12 ± 9.93 mmHg in series [2] (5 mg/kg). In addition, the “Depression of blood pressure, WKY” value in series [3] (1 mg/kg) is 5.81 ± 5.07 mmHg; in series [3] (5 mg/kg), 5.21 ± 3.48 mmHg. Also, in series [4], the “Inhibition (%), Octopamine” value was 65.3 ± 11.3%. The 50% lethal dose (LD50) in series [5] was more than 50 mg/kg. Moreover, the “Plasma NE” value in series [6] (1 mg/kg) turned out to be 2.14 ± 0.09 pmol/mL; in series [6] (5 mg/kg), 1.76 ± 0.22 pmol/mL.
As for `O=C(O[C@@H]1O[C@@H]2COC(=O)c3cc(O)c(O)c(O)c3-c3c(cc(O)c(O)c3O)C(=O)O[C@H]([C@H]1O)[C@@H]2O)c1cc(O)c(O)c(O)c1` [Corilagin, corilagin], the “Inhibition (%), Norepinephrine” value in series [1] was determined as 83.4 ± 7.3%. In addition, the “Depression of blood pressure, SHR” value is 17.85 ± 3.38 mmHg in series [2] (1 mg/kg) and 26.57 ± 7.92 mmHg in series [2] (5 mg/kg). Moreover, the “Depression of blood pressure, WKY” value worked out at 3.85 ± 2.64 mmHg in series [3] (1 mg/kg) and 10.85 ± 4.89 mmHg in series [3] (5 mg/kg). The “Inhibition (%), Octopamine” value in series [4] was determined as 65.5 ± 27.5%. In series [5], the LD50 was more than 100 mg/kg. Also, the “Plasma NE” value in series [6] (0.5 mg/kg) turned out to be 2.19 ± 0.22 pmol/mL; in series [6] (1 mg/kg), 1.55 ± 0.19 pmol/mL.
Consider `O=C1O[C@H]2[C@@H]3OC(=O)c4cc(O)c(O)c(O)c4-c4c(cc(O)c(O)c4O)C(=O)OC[C@H]2O[C@@H](OC(=O)c2cc(O)c(O)c(O)c2)[C@@H]3OC(=O)c2cc(O)c(O)c3c2[C@@H]2C1=CC(=O)[C@](O)(O3)C2(O)O` [Geraniin, geraniin], for which, in series [1], the “Inhibition (%), Norepinephrine” value is 87.1 ± 6.5%. In addition, the “Depression of blood pressure, SHR” value in series [2] (1 mg/kg) came out at 19.28 ± 5.49 mmHg; in series [2] (5 mg/kg) it was 25.85 ± 4.18 mmHg. The “Depression of blood pressure, WKY” value in series [3] (1 mg/kg) came out at 3.57 ± 4.72 mmHg; in series [3] (5 mg/kg), 13.28 ± 6.67 mmHg. Further, in series [4], the “Inhibition (%), Octopamine” value is on record as 74.8 ± 13.5%. In addition, in series [7], the LD50 result is reported as “greater than 100 mg/kg”. For the same compound, the “Plasma NE” value in series [6] (0.5 mg/kg) was found to be 2.66 ± 0.19 pmol/mL; in series [6] (1 mg/kg), 2.17 ± 0.09 pmol/mL.
Regarding `N=C(N)NCCN1CCCCCCC1` [guanethidine, reference compound], the “depress the blood pressure of hypertensive rats (conventional antihypertensive drugs)” value in series [2] was found to be 28.8±7.95 mmHg.
The same measure, in the same setting: then `COC(=O)C1=C(C)NC(C)=C(C(=O)OC)C1c1ccccc1[N+](=O)[O-]` [nifedipine, reference compound], with 10.8±2.78 mmHg; and `COc1cc2nc(N3CCN(C(=O)c4ccco4)CC3)nc(N)c2cc1OC` [prazosin, reference compound], with 31.4±7.17 mmHg.
